Source: US12492188B2, “1H-benzo[D]imidazole derivatives as TLR9 inhibitors for the treatment of fibrosis” (BRISTOL-MYERS SQUIBB COMPANY, priority 2020, dated 2025)
Where two headings read alike, the source gives them in different places.

Columns and labels:
Assay type in all cases: cell-based
human TLR8 = target: T1, human TLR8 (Homo sapiens, UniProt Q9NR97); assay: TLR8 inhibition reporter assay (HEK-Blue cells, secreted embryonic alkaline phosphatase reporter); conditions: HEK-Blue cells overexpressing human TLR8, stimulated with R848 15.9 μM; read-out: TLR 8 IC50
T1 construct: host or cells: HEK-Blue cells (HEK293-derived reporter line)
T1 sequence (Q9NR97 27-1041): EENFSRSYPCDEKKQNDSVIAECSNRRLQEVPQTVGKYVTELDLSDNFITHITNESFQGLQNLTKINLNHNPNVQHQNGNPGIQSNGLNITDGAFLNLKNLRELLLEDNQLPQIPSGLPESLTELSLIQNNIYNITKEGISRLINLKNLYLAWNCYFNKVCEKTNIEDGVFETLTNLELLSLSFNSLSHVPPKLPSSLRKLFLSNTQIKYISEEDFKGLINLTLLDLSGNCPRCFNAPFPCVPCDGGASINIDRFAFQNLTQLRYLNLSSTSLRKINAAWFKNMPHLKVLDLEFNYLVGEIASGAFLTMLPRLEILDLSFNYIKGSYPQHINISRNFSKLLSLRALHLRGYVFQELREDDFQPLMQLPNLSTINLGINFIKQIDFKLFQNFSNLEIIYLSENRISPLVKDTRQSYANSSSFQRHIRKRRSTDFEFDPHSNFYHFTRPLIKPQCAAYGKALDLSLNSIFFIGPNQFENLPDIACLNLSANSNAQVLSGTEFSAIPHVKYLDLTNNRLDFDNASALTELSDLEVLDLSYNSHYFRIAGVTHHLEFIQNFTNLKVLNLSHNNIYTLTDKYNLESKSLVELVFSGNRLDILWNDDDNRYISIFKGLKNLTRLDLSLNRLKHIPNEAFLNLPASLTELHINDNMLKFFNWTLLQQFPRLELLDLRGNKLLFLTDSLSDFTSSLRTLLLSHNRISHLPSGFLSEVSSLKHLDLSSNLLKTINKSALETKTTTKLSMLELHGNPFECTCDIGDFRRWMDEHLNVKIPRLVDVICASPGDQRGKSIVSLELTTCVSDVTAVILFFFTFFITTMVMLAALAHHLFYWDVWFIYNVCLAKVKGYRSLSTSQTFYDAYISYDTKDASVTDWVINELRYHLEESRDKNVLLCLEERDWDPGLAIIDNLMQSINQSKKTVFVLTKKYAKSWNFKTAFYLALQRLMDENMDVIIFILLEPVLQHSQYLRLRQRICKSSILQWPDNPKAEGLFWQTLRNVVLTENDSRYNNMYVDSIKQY
Outline: (§1)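 Steps: seed receptor-specific HEK-Blue cells; add compound, 0.05 nM–50 μM; wait 30 min at room temperature; add final gardiquimod 7.5 μM, R848 15.9 μM or ODN2006 5 nM for TLR7, TLR8 or TLR9; incubate 22 h at 37 °C; detect NF-κB/AP-1-driven SEAP.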

human TLR7 = target: T2, human TLR7 (Homo sapiens, UniProt Q9NYK1); assay: TLR7 inhibition reporter assay (HEK-Blue cells, secreted embryonic alkaline phosphatase reporter); conditions: HEK-Blue cells overexpressing human TLR7, stimulated with gardiquimod 7.5 μM; read-out: TLR 7 IC50
T2 construct: host or cells: HEK-Blue cells (HEK293-derived reporter line)
T2 sequence (Q9NYK1 27-1049): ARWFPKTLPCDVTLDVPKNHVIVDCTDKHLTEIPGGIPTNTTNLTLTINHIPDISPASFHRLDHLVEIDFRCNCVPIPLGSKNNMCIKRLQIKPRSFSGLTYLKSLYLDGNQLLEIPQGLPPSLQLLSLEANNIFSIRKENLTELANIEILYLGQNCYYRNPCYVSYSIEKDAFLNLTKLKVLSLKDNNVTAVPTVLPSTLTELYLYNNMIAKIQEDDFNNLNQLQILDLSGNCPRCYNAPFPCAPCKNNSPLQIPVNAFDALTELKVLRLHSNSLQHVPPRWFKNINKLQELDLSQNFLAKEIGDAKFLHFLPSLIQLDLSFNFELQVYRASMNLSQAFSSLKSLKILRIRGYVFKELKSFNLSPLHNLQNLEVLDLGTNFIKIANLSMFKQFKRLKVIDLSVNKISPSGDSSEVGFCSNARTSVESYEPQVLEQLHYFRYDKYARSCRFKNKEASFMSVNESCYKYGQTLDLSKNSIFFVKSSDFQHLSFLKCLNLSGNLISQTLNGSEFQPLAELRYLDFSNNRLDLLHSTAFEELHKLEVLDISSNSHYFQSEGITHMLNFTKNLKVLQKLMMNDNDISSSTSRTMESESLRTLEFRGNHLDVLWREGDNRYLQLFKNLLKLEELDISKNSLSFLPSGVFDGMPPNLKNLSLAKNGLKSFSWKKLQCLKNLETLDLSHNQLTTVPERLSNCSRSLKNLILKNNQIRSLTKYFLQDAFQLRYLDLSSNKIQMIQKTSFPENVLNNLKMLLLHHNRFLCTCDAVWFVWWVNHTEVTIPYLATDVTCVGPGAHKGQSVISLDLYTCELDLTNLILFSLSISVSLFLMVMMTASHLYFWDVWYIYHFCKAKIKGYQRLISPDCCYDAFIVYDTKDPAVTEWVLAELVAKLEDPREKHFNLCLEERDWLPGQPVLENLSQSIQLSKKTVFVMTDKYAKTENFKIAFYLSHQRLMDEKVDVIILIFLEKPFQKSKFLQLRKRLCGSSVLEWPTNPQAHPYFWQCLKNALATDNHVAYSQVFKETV
Outline: as §1

human TLR9 = target: T3, human TLR9 (Homo sapiens, UniProt Q9NR96); assay: TLR9 inhibition reporter assay (HEK-Blue cells, secreted embryonic alkaline phosphatase reporter); conditions: HEK-Blue cells overexpressing human TLR9, stimulated with ODN2006 5 nM
T3 construct: host or cells: HEK-Blue cells (HEK293-derived reporter line)
T3 sequence (Q9NR96 26-1032): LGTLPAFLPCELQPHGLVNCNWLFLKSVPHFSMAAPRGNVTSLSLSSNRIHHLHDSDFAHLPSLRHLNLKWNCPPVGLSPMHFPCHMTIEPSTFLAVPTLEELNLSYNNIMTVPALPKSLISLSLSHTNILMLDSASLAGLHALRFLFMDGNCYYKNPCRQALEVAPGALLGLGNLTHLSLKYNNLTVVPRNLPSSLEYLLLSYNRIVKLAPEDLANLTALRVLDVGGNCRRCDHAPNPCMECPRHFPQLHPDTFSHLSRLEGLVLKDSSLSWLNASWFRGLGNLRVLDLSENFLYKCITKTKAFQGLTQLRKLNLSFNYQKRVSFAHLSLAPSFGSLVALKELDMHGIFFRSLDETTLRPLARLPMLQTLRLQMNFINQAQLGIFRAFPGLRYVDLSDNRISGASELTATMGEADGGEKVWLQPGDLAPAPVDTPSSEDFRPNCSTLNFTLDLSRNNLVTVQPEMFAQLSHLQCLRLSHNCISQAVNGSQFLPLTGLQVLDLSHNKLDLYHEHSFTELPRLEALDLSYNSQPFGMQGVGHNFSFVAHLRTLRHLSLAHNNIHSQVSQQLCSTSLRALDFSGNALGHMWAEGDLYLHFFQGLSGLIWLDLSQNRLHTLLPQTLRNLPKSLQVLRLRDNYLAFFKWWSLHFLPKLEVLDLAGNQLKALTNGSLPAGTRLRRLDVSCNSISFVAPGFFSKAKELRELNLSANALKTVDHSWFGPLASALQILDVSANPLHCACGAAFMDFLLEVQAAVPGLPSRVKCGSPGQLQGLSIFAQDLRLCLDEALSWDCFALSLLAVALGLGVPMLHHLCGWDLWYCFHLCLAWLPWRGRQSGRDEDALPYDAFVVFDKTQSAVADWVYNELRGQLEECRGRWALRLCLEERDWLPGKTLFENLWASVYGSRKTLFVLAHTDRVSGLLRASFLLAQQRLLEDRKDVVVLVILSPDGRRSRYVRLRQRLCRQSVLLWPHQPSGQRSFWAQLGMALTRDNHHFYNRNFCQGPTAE
Outline: as §1

[1] = 22 hour incubation, reporter readout

| Compound | IC50 (human TLR8) | IC50 (human TLR7) | IC50 (human TLR9; [1]) | IC50 (human TLR9; read-out: TLR 9 IC50) |
| --- | --- | --- | --- | --- |
| COc1ccc(-c2nc3c(C)cc(C4CCN(C5CC6(C5)CN(CC5CC5)C6)CC4)cc3n2C)cc1OC [Example 48, 6-(1-(2-(cyclopropylmethyl)-2-azaspiro[3.3]heptan-6-yl)piperidin-4-yl)-2-(3,4-dimethoxyphenyl)-1,4-dimethyl-1H-benzo[d]imidazole] | > 50000 nM | > 50000 nM | 19 nM | 19 nM |
| COc1ccc(-c2nc3c(C)cc(C4CCN(C5CC6(C5)CN(C5CCC5)C6)CC4)cc3n2C)cc1OC [Example 49, 6-(1-(2-cyclobutyl-2-azaspiro[3.3]heptan-6-yl)piperidin-4-yl)-2-(3,4-dimethoxyphenyl)-1,4-dimethyl-1H-benzo[d]imidazole] | > 50000 nM | 5800 nM | 65 nM | 65 nM |
| COc1ccc(-c2nc3c(C)cc(C4CC5CCC(C4)N5C4CCN(CC(C)C)CC4)cc3n2C)cc1OC (stereo not drawn) [Example 50, 2-(3,4-dimethoxyphenyl)-6-(8-(1-isobutylpiperidin-4-yl)-8-azabicyclo[3.2.1]octan-3-yl)-1,4-dimethyl-1H-benzo[d]imidazole] | > 50000 nM | 2900 nM | 23 nM | 23 nM |
| COc1ccc(-c2nc3c(C)cc(C4CC5CCC(C4)N5C4CCN(C5CC5)CC4)cc3n2C)cc1OC (stereo not drawn) [Example 51, 6-(8-(1-cyclopropylpiperidin-4-yl)-8-azabicyclo[3.2.1]octan-3-yl)-2-(3,4-dimethoxyphenyl)-1,4-dimethyl-1H-benzo[d]imidazole] | > 50000 nM | 20000 nM | 130 nM | 130 nM |
| Cc1cc(C2CCN(C3CCN(CC(C)C)CC3)CC2)cc2c1nc(-c1ccc(S(C)(=O)=O)cc1)n2C [Example 52, 6-(1′-isobutyl-[1,4′-bipiperidin]-4-yl)-1,4-dimethyl-2-(4-(methylsulfonyl)phenyl)-1H-benzo[d]imidazole] | > 50000 nM | 4800 nM | 130 nM | 129 nM |

More lines, now with the values ahead:

| IC50 (human TLR8) | IC50 (human TLR7) | IC50 (human TLR9; [1]) | IC50 (human TLR9; read-out: TLR 9 IC50) | Compound |
| --- | --- | --- | --- | --- |
| 1600 nM | 3700 nM | 400 nM | 404 nM | CCn1c(-c2ccc(OC)c(OC)c2)nc2cc(C3CCN(C4CCN(CC(C)C)CC4)CC3)ccc21 [Example 41, 2-(3,4-dimethoxyphenyl)-1-ethyl-5-(1′-isobutyl-[1,4′-bipiperidin]-4-yl)-1H-benzo[d]imidazole] |
| > 50000 nM | 32000 nM | 260 nM | 255 nM | COc1ccc(-c2nc3cc(C4CCN(C5CCN(CC(C)C)CC5)CC4)c(C(F)(F)F)cc3[nH]2)cc1OC [Example 42, 2-(3,4-dimethoxyphenyl)-5-(1′-isobutyl-[1,4′-bipiperidin]-4-yl)-6-(trifluoromethyl)-1H-benzo[d]imidazole] |
| 31000 nM | 650 nM | 9.8 nM | 9.8 nM | COc1ccc(-c2nc3c(C)cc(C4CCN(C5CCN(CC(C)C)CC5)CC4)cc3[nH]2)cc1OC [Example 43, 2-(3,4-dimethoxyphenyl)-6-(1′-isobutyl-[1,4′-bipiperidin]-4-yl)-4-methyl-1H-benzo[d]imidazole tris(2,2,2-trifluoroacetate)] |
| 5500 nM | 9100 nM | 52 nM | 52 nM | COc1ccc(-c2nc3c(C)cc(C4CCN(C5CCN(C6CC6)CC5)CC4)cc3[nH]2)cc1OC [Example 44, 6-(1′-cyclopropyl-[1,4′-bipiperidin]-4-yl)-2-(3,4-dimethoxyphenyl)-4-methyl-1H-benzo[d]imidazole] |
| > 50000 nM | 11000 nM | 20 nM | 20 nM | COc1ccc(-c2nc3c(C)cc(C4CCN(C5CCN(C(C)C)CC5)CC4)cc3n2C)cc1OC [Example 45, 2-(3,4-dimethoxyphenyl)-6-(1′-isopropyl-[1,4′-bipiperidin]-4-yl)-1,4-dimethyl-1H-benzo[d]imidazole] |
| > 50000 nM | 18000 nM | 170 nM | 610 nM | COc1ccc(-c2nc3c(C)cc(C4CCN(C5CCN(C6CC6)CC5)CC4)cc3n2C)cc1OC [Example 46, 6-(1′-cyclopropyl-[1,4′-bipiperidin]-4-yl)-2-(3,4-dimethoxyphenyl)-1,4-dimethyl-1H-benzo[d]imidazole tris(2,2,2-trifluoroacetate)] |
| > 50000 nM | 7200 nM | 13 nM | 13 nM | COc1ccc(-c2nc3c(C)cc(C4CCN(C5CC6(C5)CN(CC(C)C)C6)CC4)cc3n2C)cc1OC [Example 47, 2-(3,4-dimethoxyphenyl)-6-(1-(2-isobutyl-2-azaspiro[3.3]heptan-6-yl)piperidin-4-yl)-1,4-dimethyl-1H-benzo[d]imidazole tris(2,2,2-trifluoroacetate)] |
